Data published in patent US20180155344A1, “TRICYCLIC PIPERIDINE COMPOUNDS” (ACTELION PHARMACEUTICALS LTD, priority 2015, published 2018).
Where a name gives a salt, the structure may show the parent alone.

molecular target: T1, human TPH1 (Homo sapiens, UniProt P17752); test: biochemical
T1 sequence (P17752 1-444): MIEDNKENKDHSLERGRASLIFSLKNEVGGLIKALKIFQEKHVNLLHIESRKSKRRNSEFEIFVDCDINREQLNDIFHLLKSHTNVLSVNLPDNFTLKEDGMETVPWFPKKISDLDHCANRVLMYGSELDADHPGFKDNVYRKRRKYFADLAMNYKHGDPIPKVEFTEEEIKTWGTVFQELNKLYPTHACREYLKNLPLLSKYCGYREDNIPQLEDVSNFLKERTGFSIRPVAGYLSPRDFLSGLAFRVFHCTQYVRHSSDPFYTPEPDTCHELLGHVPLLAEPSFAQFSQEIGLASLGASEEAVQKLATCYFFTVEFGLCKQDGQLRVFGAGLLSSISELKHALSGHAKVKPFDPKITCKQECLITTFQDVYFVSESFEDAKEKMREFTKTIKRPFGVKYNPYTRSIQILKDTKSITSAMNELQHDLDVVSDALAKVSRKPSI
How it was run: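 Inhibition is derived from 5-hydroxy-L-tryptophan fluorescence (540 nm emission, 300 nm excitation) after perchloric acid stop, relative to DMSO vehicle. Recombinant full-length human enzyme (40-80 nM) reacts with 40 μM tryptophan plus 100 μM methyltetrahydropterin, pH 7.6 Tris/DTT/catalase, 15° C, 60 min.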

| IC50 [nM] | SMILES |
| --- | --- |
| 31 | N#Cc1ccc(C2c3c(nc4ccccn34)CCN2C(=O)COc2ccc(C(=O)NC3CC3)nc2Cl)c(F)c1 (stereo not shown) [Example 1.20.2, 6-chloro-5-(2-(1-(4-cyano-2-fluorophenyl)-3,4-dihydroimidazo[1,2-a:5,4-c′]dipyridin-2(1H)-yl)-2-oxoethoxy)-N-cyclopropylpicolinamide] |
| 54 | COCCOc1ccc(C2c3c(nc4ccccn34)CCN2C(=O)COc2ccc(C(=O)NC3CC3)nc2Cl)c(F)c1 (stereo not shown) [Example 1.21.1, 6-chloro-N-cyclopropyl-5-(2-(1-(2-fluoro-4-(2-methoxyethoxy)phenyl)-3,4-dihydroimidazo[1,2-a:5,4-c′]dipyridin-2(1H)-yl)-2-oxoethoxy)picolinamide] |
| 79 | COCCOc1ccc(C2c3c(nc4ccccn34)CCN2C(=O)COc2ccc(NS(C)(=O)=O)nc2Cl)c(F)c1 (stereo not shown) [Example 1.21.2, N-(6-chloro-5-(2-(1-(2-fluoro-4-(2-methoxyethoxy)phenyl)-3,4-dihydroimidazo[1,2-a:5,4-c′]dipyridin-2(1H)-yl)-2-oxoethoxy)pyridin-2-yl)methanesulfonamide] |
| 38 | CS(=O)(=O)Nc1ccc(OCC(=O)N2CCc3nc4ccccn4c3C2c2ccc(OCCO)cc2F)c(Cl)n1 (stereo not shown) [Example 1.22.2, N-(6-Chloro-5-(2-(1-(2-fluoro-4-(2-hydroxyethoxy)phenyl)-3,4-dihydroimidazo[1,2-a:5,4-c′]dipyridin-2(1H)-yl)-2-oxoethoxy)pyridin-2-yl)methanesulfonamide] |
| 39 | COc1ccc(C2c3c(nc4cc(Cl)ccn34)CCN2C(=O)COc2ccc3ccccc3c2)cc1OC (stereo not shown) [Example 2.1.1, 1-(7-chloro-1-(3,4-dimethoxyphenyl)-3,4-dihydroimidazo[1,2-a:5,4-c′]dipyridin-2(1H)-yl)-2-(naphthalen-2-yloxy)ethan-1-one hydrochloride] |
| 66 | COc1ccc(C2c3c(nc4cc(Cl)ccn34)CCN2C(=O)COc2ccc(CN3CCOCC3)cc2Cl)cc1OC (stereo not shown) [Example 2.1.2, 1-(7-chloro-1-(3,4-dimethoxyphenyl)-3,4-dihydroimidazo[1,2-a:5,4-c′]dipyridin-2(1H)-yl)-2-(2-chloro-4-(morpholinomethyl)phenoxy)ethan-1-one] |
| 390 | COc1ccc(C2c3c(nc4cc(Cl)ccn34)CCN2C(=O)COc2ccc([N+](=O)[O-])cc2Cl)cc1OC (stereo not shown) [Example 2.1.4, 1-(7-chloro-1-(3,4-dimethoxyphenyl)-3,4-dihydroimidazo[1,2-a:5,4-c′]dipyridin-2(1H)-yl)-2-(2-chloro-4-nitrophenoxy)ethan-1-one] |
| 53 | COc1ccc(C2c3c(nc4cc(Cl)ccn34)CCN2C(=O)COc2ccc(Cl)cc2Cl)cc1OC (stereo not shown) [Example 2.1.6, 1-(7-chloro-1-(3,4-dimethoxyphenyl)-3,4-dihydroimidazo[1,2-a:5,4-c′]dipyridin-2(1H)-yl)-2-(2,4-dichlorophenoxy)ethan-1-one] |
| 34 | COc1ccc(C2c3c(nc4cc(Cl)ccn34)CCN2C(=O)COc2ccc(N3CCOCC3)cc2Cl)cc1OC (stereo not shown) [Example 2.1.7, 1-(7-chloro-1-(3,4-dimethoxyphenyl)-3,4-dihydroimidazo[1,2-a:5,4-c′]dipyridin-2(1H)-yl)-2-(2-chloro-4-morpholinophenoxy)ethan-1-one] |
| 208 | COc1ccc(C2c3c(nc4cc(Cl)ccn34)CCN2C(=O)COc2nn(C)c(C(F)(F)F)c2Cl)c(F)c1 (stereo not shown) [Example 2.3.3, 1-(7-chloro-1-(2-fluoro-4-methoxyphenyl)-3,4-dihydroimidazo[1,2-a:5,4-c′]dipyridin-2(1H)-yl)-2-((4-chloro-1-methyl-5-(trifluoromethyl)-1H-pyrazol-3-yl)oxy)ethan-1-one] |

The next lines start with the molecule.

| SMILES | IC50 [nM] |
| --- | --- |
| CC(C)(O)c1ccc(C2c3c(nc4ccccn34)CCN2C(=O)COc2ccc(NS(C)(=O)=O)nc2Cl)c(F)c1 (stereo not shown) [Example 1.16.2, N-(6-chloro-5-(2-(1-(2-fluoro-4-(2-hydroxypropan-2-yl)phenyl)-3,4-dihydroimidazo[1,2-a:5,4-c′]dipyridin-2(1H)-yl)-2-oxoethoxy)pyridin-2-yl)methanesulfonamide] | 546 |
| COC(C)(C)c1ccc(C2c3c(nc4ccccn34)CCN2C(=O)COc2ccc(C(=O)NC3CC3)nc2Cl)c(F)c1 (stereo not shown) [Example 1.17.1, 6-chloro-N-cyclopropyl-5-(2-(1-(2-fluoro-4-(2-methoxypropan-2-yl)phenyl)-3,4-dihydroimidazo[1,2-a:5,4-c′]dipyridin-2(1H)-yl)-2-oxoethoxy)picolinamide] | 140 |
| COC(C)(C)c1ccc(C2c3c(nc4ccccn34)CCN2C(=O)COc2ccc(NS(C)(=O)=O)nc2Cl)c(F)c1 (stereo not shown) [Example 1.17.2, N-(6-chloro-5-(2-(1-(2-fluoro-4-(2-methoxypropan-2-yl)phenyl)-3,4-dihydroimidazo[1,2-a:5,4-c′]pyridin-2(1H)-yl)-2-oxoethoxy)pyridin-2-yl)methanesulfonamide] | 591 |
| COCc1ccc(C2c3c(nc4ccccn34)CCN2C(=O)COc2ccc(C(=O)NC3CC3)nc2Cl)c(F)c1 (stereo not shown) [Example 1.18.1, 6-chloro-N-cyclopropyl-5-(2-(1-(2-fluoro-4-(methoxymethyl)phenyl)-3,4-dihydroimidazo[1,2-a:5,4-c′]dipyridin-2(1H)-yl)-2-oxoethoxy)picolinamide] | 38 |
| COCc1ccc(C2c3c(nc4ccccn34)CCN2C(=O)COc2ccc(NS(C)(=O)=O)nc2Cl)c(F)c1 (stereo not shown) [Example 1.18.2, N-(6-chloro-5-(2-(1-(2-fluoro-4-(methoxymethyl)phenyl)-3,4-dihydroimidazo[1,2-a:5,4-c′]dipyridin-2(1H)-yl)-2-oxoethoxy)pyridin-2-yl)methanesulfonamide] | 40 |
| CS(=O)(=O)Nc1ccc(OCC(=O)N2CCc3nc4ccccn4c3C2c2ccc(OC(F)(F)F)cc2F)c(Cl)n1 (stereo not shown) [Example 1.19.1, N-(6-chloro-5-(2-(1-(2-fluoro-4-(trifluoromethoxy)phenyl)-3,4-dihydroimidazo[1,2-a:5,4-c′]dipyridin-2(1H)-yl)-2-oxoethoxy)pyridin-2-yl)methanesulfonamide0.71] | 113 |
| O=C(NC1CC1)c1ccc(OCC(=O)N2CCc3nc4ccccn4c3C2c2ccc(OC(F)(F)F)cc2F)c(Cl)n1 (stereo not shown) [Example 1.19.2, 6-chloro-N-cyclopropyl-5-(2-(1-(2-fluoro-4-(trifluoromethoxy)phenyl)-3,4-dihydroimidazo[1,2-a:5,4-c′]dipyridin-2(1H)-yl)-2-oxoethoxy)picolinamide] | 18 |
| CS(=O)(=O)Nc1ccc(OCC(=O)N2CCc3nc4ccccn4c3C2c2ccc(C#N)cc2F)c(Cl)n1 (stereo not shown) [Example 1.20.1, N-(6-chloro-5-(2-(1-(4-cyano-2-fluorophenyl)-3,4-dihydroimidazo[1,2-a:5,4-c′]dipyridin-2(1H)-yl)-2-oxoethoxy)pyridin-2-yl)methanesulfonamide] | 98 |
| O=C(NC1CC1)c1ccc(OCC(=O)N2CCc3nc4ccccn4c3C2c2ccc(OCCO)cc2F)c(Cl)n1 (stereo not shown) [Example 1.22.1, 6-chloro-N-cyclopropyl-5-(2-(1-(2-fluoro-4-(2-hydroxyethoxy)phenyl)-3,4-dihydroimidazo[1,2-a:5,4-c′]dipyridin-2(1H)-yl)-2-oxoethoxy)picolinamide] | 80 |
| COc1ccc(C2c3c(nc4cc(Cl)ccn34)CCN2C(=O)COc2ccc(CO)cc2Cl)cc1OC (stereo not shown) [Example 2.1.3, 1-(7-chloro-1-(3,4-dimethoxyphenyl)-3,4-dihydroimidazo[1,2-a:5,4-c′]dipyridin-2(1H)-yl)-2-(2-chloro-4-(hydroxymethyl)phenoxy)ethan-1-one] | 402 |
| COc1ccc(C2c3c(nc4cc(Cl)ccn34)CCN2C(=O)COc2ccc(CN3CCOCC3)nc2Cl)cc1OC (stereo not shown) [Example 2.1.5, 1-(7-chloro-1-(3,4-dimethoxyphenyl)-3,4-dihydroimidazo[1,2-a:5,4-c′]dipyridin-2(1H)-yl)-2-((2-chloro-6-(morpholinomethyl)pyridin-3-yl)oxy)ethan-1-one] | 316 |
| O=C(COc1ccc(CN2CCOCC2)cc1Cl)N1CCc2nc3cc(Cl)ccn3c2C1c1cccnc1F (stereo not shown) [Example 2.2.1, 1-(7-chloro-1-(2-fluoropyridin-3-yl)-3,4-dihydroimidazo[1,2-a:5,4-c′]dipyridin-2(1H)-yl)-2-(2-chloro-4-(morpholinomethyl)phenoxy)ethan-1-one] | 269 |
| O=C(COc1ccc(N2CCOCC2)cc1Cl)N1CCc2nc3cc(Cl)ccn3c2[C@H]1c1cccnc1F [Example 2.2.2, 1-((1R)-7-chloro-1-(2-fluoropyridin-3-yl)-3,10a-dihydroimidazo[1,2-a:5,4-c′]dipyridin-2(1H)-yl)-2-(2-chloro-4-morpholinophenoxy)ethan-1-one] | 124 |
| COc1ccc(C2c3c(nc4cc(Cl)ccn34)CCN2C(=O)COc2ccc(CN3CCOCC3)cc2Cl)c(F)c1 (stereo not shown) [Example 2.3.1, 1-(7-chloro-1-(2-fluoro-4-methoxyphenyl)-3,4-dihydroimidazo[1,2-a:5,4-c′]dipyridin-2(1H)-yl)-2-(2-chloro-4-(morpholinomethyl)phenoxy)ethan-1-one] | 8 |
| COc1ccc(C2c3c(nc4cc(Cl)ccn34)CCN2C(=O)COc2ccc(CN3CCOCC3)nc2Cl)c(F)c1 (stereo not shown) [Example 2.3.2, 1-(7-chloro-1-(2-fluoro-4-methoxyphenyl)-3,4-dihydroimidazo[1,2-a:5,4-c′]dipyridin-2(1H)-yl)-2-((2-chloro-6-(morpholinomethyl)pyridin-3-yl)oxy)ethan-1-one] | 59 |
